Assay results: patent US10577406B2, “FKBP-L polypeptides and uses in angiogenesis-mediated disorders” (ALMAC DISCOVERY LIMITED, priority 2006, dated 2020)

What was measured:
[1] = tested on: MDA-231 (breast; CD44+ve); assay: cell invasion in a modified Boyden chamber system, MDA-231; assay type: cell-based; settings: 24 h
Method: (§1) Twelve well plate polycarbonate inserts were divided into two groups with half remaining uncoated and half coated with 100 μg/cm^2 of Matrigel. The coated inserts were allowed to dry overnight at room temperature in a sterile tissue culture hood. The required cell line; HMEC-1, PC3 or MDA231 was trypsinised, re-suspended in fresh medium and the cell number calculated. 5×10^5 cells, in a total volume of 500 μl, were added to the insert (top chamber) and 1.5 ml of complete medium added to the bottom chamber of the plate as a stimulus for invasion. FKBP-L 24mer was added to both the upper and lower chamber of the plate at the required concentration in the experimental wells. The plate was incubated for 24 h (PC3 or MDA231) or 48 h (HMEC-1).
(§2) The inserts were carefully removed from their 12 well plate and inserts without Matrigel coating were placed directly into Carnoys fixative. […]
(§3) The polycarbonate inserts were cut from the holders and placed on to mounting medium on a microscope slide. […] The slides were stored at 4° C. until analysed.
(§4) Ten images from each insert were captured and the number of fluorescent cells per image was analysed by Lucia Imaging software. The ratio of cells visible on non-coated inserts compared to cells visible on Matrigel coated inserts was expressed as % invasion. […]

DU145 tumours = assay: prostate cancer xenograft model, daily IP injection; assay type: in vivo, SCID mice
Method: Du145 (prostate carcinoma) cells were obtained from Cancer Research UK and cultured in RPMI 1640 medium (Invitrogen) supplemented with 10% foetal calf serum. All cell lines were grown as monolayers, incubated at 37° C. under 5% CO2.
24 male immunocompromised (severe combined immunodeficient) mice were used (Harlan). The mice were acclimatised and caged in groups of 5 or less in an isolator. Du145 (prostate carcinoma) cells were cultured as previously described. Sub-confluent cells were harvested and the cell concentration was adjusted to 5×10^7 cells/ml in PBS. The dorsum of each mouse was shaved. After administrating aesthetic, each mouse received intra-dermal injections of 5×10^6 Du145 tumour cells (100 μl) bilaterally into the rear dorsum with a 26-gauge needle. The tumours were allowed to grow until they reached a volume of 150-175 mm^3. The mice were randomly divided into four treatment groups: (a) Control: PBS only (8 mice); (b) 24mer FKBPL peptide: 0.3 mg/kg/day (6 mice); (c) 24mer FKBPL peptide: 3×10^−3 mg/kg/day (6 mice); and (d) 24mer FKBPL peptide: 3×10^−4 mg/kg/day (5 mice).
The mice received daily IP injections (100 μl) of the above treatments. The weight and the tumour volume of each mouse were recorded every 2 days. Tumour volume was calculated as: Length×Breadth×Height×0.5236. Twenty-one days after initial treatment the following animals were sacrificed: 0.3 mg/kg/day 24mer FKBPL (2 mice), 3×10^−3 mg/kg/day (2 mice), 3×10^−4 mg/kg/day (1 mouse) and PBS (2 mice). The tumours were excised and stored in saline formalin solution for future histopathological analysis.

PC3 (Prostate; CD44+ve) = assay: cell invasion in a modified Boyden chamber system, PC3; assay type: cell-based; settings: 24 h
Method: as §1, §2, §3, §4

HMEC-1 = assay type: cell-based, Human
Method: (§5) The in vitro tubule formation assay used in these studies is a modified version of the method described by Ashton et al (1999). In brief, assays were conducted using BD BioCoat™ Matrigel™ Matrix Thin Layer 24-well Multiwell Plates (BD Discovery Labware, Oxford, UK). The Matrigel™ was rehydrated with 500 μl MCDB-131 serum free medium and incubated at 37° C. for 30 minutes. Excess medium was removed and HMEC-1 were seeded at a density of 1×10^5 and the plates incubated at 37° C. under 5% CO2/95% air for 1 hour.
(§6) Increasing concentrations of the recombinant FKBP-L protein (SEQ ID NO: 1) were added to each individual well in triplicate (250-1000 ngml^−1) and the plate was incubated for a further 18 hours. The degree of tubule formation between adjacent HMEC-1 cells was assessed in each well in five fields of view, by counting the number of cell to cell contacts between different HMEC-1 cells in the designated area. An independent investigator assessed each well and the FKBP-L treated wells were compared to sham treated controls.
as §5, with “al.” for “al”, “min.” for “minutes.”, “h. Increasing concentrations of FKBP-L 24mer (SEQ ID NO: 10) and 1-57mer (SEQ ID NO: 6) from 10^−14-10^−6 M were used.” for “hour.”
as §6, with “The” for “Increasing concentrations of the recombinant FKBP-L protein (SEQ ID NO: 1) were added to each individual well in triplicate (250-1000 ngml^−1) and the”, “h.” for “hours.”

Row | Molecule | effect on cell invasion through Matrigel [1] | tumors compared with controls (Kaplan-Meier, time to 3× treatment volume) (DU145 tumours; 0.0003 mg/kg/day, daily IP) | time for tumours to reach 3× their treatment volume (Kaplan-Meier survival) (DU145 tumours; 0.003 mg/kg/day, daily IP) | time for tumours to reach 3× their treatment volume (Kaplan-Meier survival) (DU145 tumours; 0.3 mg/kg/day, daily IP) | tumours that failed to reach their volume tripling within the duration of the experiment (all but the stated number) (DU145 tumours; 0.3 mg/kg/day, daily IP) | growth of DU145 tumours compared to vehicle only treated tumours (DU145 tumours; 0.3 mg/kg/day, daily i.p.) | growth of DU145 tumours compared to vehicle only treated tumours (DU145 tumours; 3×10^−3 mg/kg/day, daily i.p.) | body weight after daily treatment (tolerability) (DU145 tumours; daily IP injection) | tumour appearance (DU145 tumours; most effective doses, daily i.p., a number of tumours) | effect on cell invasion through Matrigel (PC3 (Prostate; CD44+ve)) | EC50 (HMEC-1; 18 h) | optimum concentration for inhibition of cell to cell contacts or tubules (HMEC-1; 250-1000 ngml^−1, 18 hours) | efficacy (inhibition of cell to cell contacts) at optimum concentration (HMEC-1; 750 ngml^−1, 18 hours) | EC50 potency, tube formation (HMEC-1; 18 hours)
1 | H-QIRQQPRDPPTETLELEVSPDPAS-OH [FKBP-L 24mer] | potent inhibitor | not significantly different from controls | significantly later than controls | significantly later than controls | All but two tumours (of 6) | significantly slowed the growth | significantly slowed the growth | None of the animals lost weight | evidence of a necrotic centre | potent inhibitor | 0.03 nM |  |  | 
2 | full length recombinant FKBP-L: recombinant full length his-tagged FKBP-L protein (SEQ ID NO: 1) expressed in BL21 (DE3) (protein, listed as Homo sapiens, His tag) MRGSHHHHHHGMASMTGGQQMGRDLYDDDDKDRWGSMETPPVNTIGEKDTSQPQQEWEKNLRENLDSVIQIRQQPRDPPTETLELEVSPDPASQILEHTQGAEKLVAELEGDSHKSHGSTSQMPEALQASDLWYCPDGSFVKKIVIRGHGLDKPKLGSCCRVLALGFPFGSGPPEGWTELTMGVGPWREETWGELIEKCLESMCQGEEAELQLPGHTGPPVGLTLASFTQGRDSWELETSEKEALAREERARGTELFRAGNPEGAARCYGRALRLLLTLPPPGPPERTVLHANLAACQLLLGQPQLAAQSCDRVLEREPGHLKALYRRGVAQAALGNLEKATADLKKVLAIDPKNRAAQEELGKVVIQGKNQDAGLAQGLRKMFG |  |  |  |  |  |  |  |  |  |  |  | 750 ngml^−1 | 80% | 314 ngml^−1
